Laboratory results taken from patent US20110212053A1, “PHOSPHATIDYLINOSITOL 3 KINASE INHIBITORS” (priority 2008, published 2011).
Several values for one entry are separate records, joined by “and”; a condition that tells them apart may be missing. Equal values may be shown once.

Key:
Assay type in all cases: biochemical
[1] = biological target: T1, PI3Kγ (Homo sapiens, UniProt P48736); experiment: KinaseGLO luminescent PI3-kinase assay, PI3Kγ
T1 construct: purchased Invitrogen or Millipore
Description: (§1) Compound Preparation: KinaseGLO assay: 30× stocks of inhibitors were prepared in DMSO. A 10 mM master stock was prepared and all other stocks were generated by serial dilution of this master stock in DMSO. The final concentration of DMSO in the kinase reaction was 3.3% (v/v).
(§2) PI3-Kinase Assay: The KinaseGLO® Luminescent Kinase Assay (Promega) is a luciferin-luciferase based luminescent assay that utilizes a proprietary thermostable luciferase to quantify the ATP remaining in a solution after a kinase reaction. The luminescent signal generated using KinaseGLO® directly correlates with ATP concentration, and therefore inversely correlates with kinase activity.
(§3) PI3K enzyme sample was thawed and diluted to 100 ng/μL in enzyme dilution buffer (50 mM HEPES, pH7.5, 3.0 mM MgCl2, 1.0 mM EGTA) and stored on ice. PI3Kα enzyme was diluted to a final concentration of 1 ng/μL in reaction buffer (for PI3Kα; 50 mM HEPES, pH7.5, 100 mM NaCl, 2.0 mM DTT, 3.0 mM MgCl2, 1.0 mM EGTA, 10 μM ATP) and gently mixed. 25 μL of this kinase reaction was then aliquoted into test wells in a Microfluor2 white 96-well plate (Thermo Scientific). As a preincubation step, 1 μl of 30× compound dilutions was added to the appropriate test wells to generate a ten point dose-response ranging from 0.0 μM-10 μM inhibitor. […] Luminescent signal was detected using a SpectraMax M5 (Molecular Devices). Maximal luminescence (no PI3K activity/maximal PI3K inhibition) was determined from reaction buffer plus SC-PI substrate only controls. The minimal signal (maximal PI3K activity) was determined by the 0.0 μM compound (DMSO only) control. IC50 values were calculated via non-linear regression using GraphPad Prism data analysis software.
(§4) Compounds were assayed against the Class I PI3Kα, PI3Kβ, PI3Kγ, PI3Kδ, PI3Kα(H1047R) and PI3Kα(E545K) in the KinaseGLO assay as described in Example 2, and against the Class IV PI3K mTOR in the radiometric assay. IC50 values (μM) were determined using 8-10 point half-log dose dilutions and calculated via nonlinear regression analysis using Graphpad Prism data analysis software.

[2] = biological target: T2, MELK (Homo sapiens, UniProt Q14680); experiment: MELK kinase assay (KinaseGLO)
T2 construct: purchased Invitrogen or Millipore
Description: as §1
MELK kinase assay: The ability of compounds to inhibit MELK was also determined using the KinaseGLO assay. Briefly, MELK enzymes was thawed and diluted to a final concentration of 2.64 ng/μL in reaction buffer (50 mM HEPES, pH7.5, 100 mM NaCl, 2.0 mM DTT, 3.0 mM MgCl2, 1.0 mM EGTA, 10 μM ATP). 19 μl of this kinase reaction mixture was aliquoted into test wells (50 ng MELK/well) in a Microfluor2 white 96-well plate (Thermo Scientific). As a preincubation step, 1 μl of 30× compound dilutions was added to the appropriate test wells to generate a ten point dose-response ranging from 0.0 μM-10 μM inhibitor, and incubated for 15 minutes at 4° C. The reaction was started by addition of 10 μL of 150 μM ZIPtide peptide substrate resuspended in reaction buffer (50 μM final concentration of ZIPtide). Reactions were incubated at room temperature for 2 hours prior to addition of 30 μL of KinaseGLO reagent and development as described. Maximal luminescence (no MELK activity/maximal MELK inhibition) was determined from reaction buffer plus peptide substrate only controls. The minimal signal (maximal MELK activity) was determined by the 0.0 μM compound (DMSO only) control. IC50 values were calculated via non-linear regression using GraphPad Prism data analysis software. […]
Compounds of the invention were assayed against the select kinases using the KinaseGLO assay (MELK) or the radiometric assay (PIM, TRKC, PDGFRα(D842V), MNK1 and mTOR). IC50 values were determined using 8-10 point half-log dose dilutions and calculated via nonlinear regression analysis using Graphpad Prism data analysis software.

[3] = biological target: T3, PI3Kα(H1047R) (Homo sapiens, UniProt P42336, H1047R); experiment: KinaseGLO luminescent PI3-kinase assay, mutant PI3Kα(H1047R)
T3 construct: purchased Invitrogen or Millipore
Description: as §1, §2, §3, §4

[4] = biological target: T4, PI3Kδ (Homo sapiens, UniProt O00329); experiment: KinaseGLO luminescent PI3-kinase assay, PI3Kδ
T4 construct: purchased Invitrogen or Millipore
Description: as §1, §2, §3, §4

[5] = biological target: T5, PI3Kα(E545K) (Homo sapiens, UniProt P42336, E545K); experiment: KinaseGLO luminescent PI3-kinase assay, mutant PI3Kα(E545K)
T5 construct: purchased Invitrogen or Millipore
Description: as §1, §2, §3, §4

[6] = biological target: T6, PI3Kα (Homo sapiens, UniProt P42336); experiment: KinaseGLO luminescent PI3-kinase assay, PI3Kα
T6 construct: purchased Invitrogen or Millipore
Description: as §1, §2
PI3K enzyme sample was thawed and diluted to 100 ng/μL in enzyme dilution buffer (50 mM HEPES, pH7.5, 3.0 mM MgCl2, 1.0 mM EGTA) and stored on ice. PI3Kα enzyme was diluted to a final concentration of 1 ng/μL in reaction buffer (for PI3Kα; 50 mM HEPES, pH7.5, 100 mM NaCl, 2.0 mM DTT, 3.0 mM MgCl2, 1.0 mM EGTA, 10 μM ATP) and gently mixed. 25 μL of this kinase reaction was then aliquoted into test wells in a Microfluor2 white 96-well plate (Thermo Scientific). As a preincubation step, 1 μl of 30× compound dilutions was added to the appropriate test wells to generate a ten point dose-response ranging from 0.0 μM-10 μM inhibitor. The enzyme-inhibitor mixture was then incubated for 30 minutes at 4° C. After this preincubation, […] (50 μM final concentration) was added to each test well to initiate the kinase reaction. Reactions were incubated at room temperature for 2 hours with moderate shaking. The KinaseGLO® luminescent reagent (Promega) was prepared according to the manufacturer's instructions. Both the KinaseGLO® buffer and substrate were allowed to thaw and equilibrate at room temperature for two hours prior to mixing and use. The PI3-kinase reaction was terminated by the addition of 30 μL of reconstituted KinaseGLO® reagent to each reaction well and then incubated in the dark for 10 minutes at room temperature. Luminescent signal was detected using a SpectraMax M5 (Molecular Devices). Maximal luminescence (no PI3K activity/maximal PI3K inhibition) was determined from reaction buffer plus SC-PI substrate only controls. The minimal signal (maximal PI3K activity) was determined by the 0.0 μM compound (DMSO only) control. IC50 values were calculated via non-linear regression using GraphPad Prism data analysis software.
as §4

T5 sequence (P42336 whole entry E545K): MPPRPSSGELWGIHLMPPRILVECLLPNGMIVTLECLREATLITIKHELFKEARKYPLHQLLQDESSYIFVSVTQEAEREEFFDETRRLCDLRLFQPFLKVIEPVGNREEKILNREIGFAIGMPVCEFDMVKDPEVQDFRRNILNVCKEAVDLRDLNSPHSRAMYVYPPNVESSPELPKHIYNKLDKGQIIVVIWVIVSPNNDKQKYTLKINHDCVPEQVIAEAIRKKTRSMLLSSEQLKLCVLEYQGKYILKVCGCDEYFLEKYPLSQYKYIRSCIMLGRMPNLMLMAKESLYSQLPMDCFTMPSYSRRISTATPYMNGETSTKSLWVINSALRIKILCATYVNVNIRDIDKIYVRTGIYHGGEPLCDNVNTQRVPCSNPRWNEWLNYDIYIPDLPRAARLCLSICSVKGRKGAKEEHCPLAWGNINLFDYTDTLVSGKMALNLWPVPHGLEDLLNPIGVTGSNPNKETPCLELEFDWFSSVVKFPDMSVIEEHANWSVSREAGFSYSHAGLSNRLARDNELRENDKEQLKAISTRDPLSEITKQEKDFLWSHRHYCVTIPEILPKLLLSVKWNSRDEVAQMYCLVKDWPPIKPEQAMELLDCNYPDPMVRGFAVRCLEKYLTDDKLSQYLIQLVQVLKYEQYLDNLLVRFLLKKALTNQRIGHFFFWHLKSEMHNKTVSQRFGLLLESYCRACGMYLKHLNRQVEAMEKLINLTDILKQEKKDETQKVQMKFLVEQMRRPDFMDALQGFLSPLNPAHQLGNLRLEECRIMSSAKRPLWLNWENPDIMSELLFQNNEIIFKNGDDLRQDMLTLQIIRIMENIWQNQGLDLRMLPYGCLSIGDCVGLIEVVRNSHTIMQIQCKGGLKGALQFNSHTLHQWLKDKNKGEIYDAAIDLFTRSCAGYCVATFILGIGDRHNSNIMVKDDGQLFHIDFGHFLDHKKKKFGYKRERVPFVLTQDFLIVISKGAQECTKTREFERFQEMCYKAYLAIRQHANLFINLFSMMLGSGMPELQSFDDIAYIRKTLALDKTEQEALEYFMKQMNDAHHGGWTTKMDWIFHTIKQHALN
T5 sequence (P27986 whole entry partner): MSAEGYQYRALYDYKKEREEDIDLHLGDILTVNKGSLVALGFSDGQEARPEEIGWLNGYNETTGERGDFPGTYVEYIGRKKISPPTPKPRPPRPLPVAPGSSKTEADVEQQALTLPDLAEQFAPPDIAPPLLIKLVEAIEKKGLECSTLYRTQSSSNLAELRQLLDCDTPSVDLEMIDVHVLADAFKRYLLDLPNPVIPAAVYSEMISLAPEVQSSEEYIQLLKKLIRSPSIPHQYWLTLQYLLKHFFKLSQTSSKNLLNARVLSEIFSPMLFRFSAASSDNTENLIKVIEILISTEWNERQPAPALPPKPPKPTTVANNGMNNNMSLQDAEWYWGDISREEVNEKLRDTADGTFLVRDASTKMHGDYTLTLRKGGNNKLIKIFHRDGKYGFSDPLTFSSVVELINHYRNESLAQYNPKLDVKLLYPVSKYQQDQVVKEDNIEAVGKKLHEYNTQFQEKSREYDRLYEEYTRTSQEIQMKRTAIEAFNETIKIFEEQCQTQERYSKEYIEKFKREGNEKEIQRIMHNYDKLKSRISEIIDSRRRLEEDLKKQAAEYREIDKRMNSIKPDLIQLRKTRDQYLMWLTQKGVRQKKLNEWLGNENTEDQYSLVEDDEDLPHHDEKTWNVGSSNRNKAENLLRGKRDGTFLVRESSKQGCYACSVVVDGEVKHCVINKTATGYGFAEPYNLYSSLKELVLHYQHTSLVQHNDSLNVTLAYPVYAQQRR
T3 sequence (P42336 whole entry H1047R): as the sequence (P42336 whole entry E545K) above, with K545E, H1047R counted along it
T3 sequence (P27986 whole entry partner): as the sequence (P27986 whole entry partner) above
T1 sequence (P48736 whole entry): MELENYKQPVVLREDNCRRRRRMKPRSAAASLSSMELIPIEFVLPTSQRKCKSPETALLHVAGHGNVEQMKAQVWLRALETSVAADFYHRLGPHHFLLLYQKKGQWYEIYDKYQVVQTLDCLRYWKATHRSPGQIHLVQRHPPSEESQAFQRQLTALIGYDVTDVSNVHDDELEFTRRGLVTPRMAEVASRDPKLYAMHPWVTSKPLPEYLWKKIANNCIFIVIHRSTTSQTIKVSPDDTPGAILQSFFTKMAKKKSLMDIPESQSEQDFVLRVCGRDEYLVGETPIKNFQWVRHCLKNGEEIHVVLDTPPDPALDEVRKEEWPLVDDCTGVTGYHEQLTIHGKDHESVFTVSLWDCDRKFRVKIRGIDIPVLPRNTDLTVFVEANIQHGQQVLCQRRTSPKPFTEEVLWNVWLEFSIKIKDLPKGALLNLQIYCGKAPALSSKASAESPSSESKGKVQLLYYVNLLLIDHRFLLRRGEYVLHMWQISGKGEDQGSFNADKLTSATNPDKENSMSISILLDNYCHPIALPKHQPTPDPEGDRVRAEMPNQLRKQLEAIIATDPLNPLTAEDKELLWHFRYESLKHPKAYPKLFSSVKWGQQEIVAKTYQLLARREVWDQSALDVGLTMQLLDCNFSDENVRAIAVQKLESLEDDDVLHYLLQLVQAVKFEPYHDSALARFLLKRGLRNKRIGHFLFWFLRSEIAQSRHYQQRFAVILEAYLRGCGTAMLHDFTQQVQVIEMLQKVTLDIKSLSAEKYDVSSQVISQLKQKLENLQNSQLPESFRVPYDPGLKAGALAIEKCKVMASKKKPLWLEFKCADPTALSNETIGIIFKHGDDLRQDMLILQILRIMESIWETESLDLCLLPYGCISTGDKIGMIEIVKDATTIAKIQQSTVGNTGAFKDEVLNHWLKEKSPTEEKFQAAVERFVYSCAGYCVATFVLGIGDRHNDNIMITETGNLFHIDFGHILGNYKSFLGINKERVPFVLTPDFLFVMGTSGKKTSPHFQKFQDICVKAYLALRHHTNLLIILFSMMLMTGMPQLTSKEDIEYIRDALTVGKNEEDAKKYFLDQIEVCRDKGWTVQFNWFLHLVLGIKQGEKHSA
T6 sequence (P42336 whole entry): as the sequence (P42336 whole entry E545K) above, with K545E counted along it
T6 sequence (P27986 whole entry partner): as the sequence (P27986 whole entry partner) above
T4 sequence (O00329 whole entry): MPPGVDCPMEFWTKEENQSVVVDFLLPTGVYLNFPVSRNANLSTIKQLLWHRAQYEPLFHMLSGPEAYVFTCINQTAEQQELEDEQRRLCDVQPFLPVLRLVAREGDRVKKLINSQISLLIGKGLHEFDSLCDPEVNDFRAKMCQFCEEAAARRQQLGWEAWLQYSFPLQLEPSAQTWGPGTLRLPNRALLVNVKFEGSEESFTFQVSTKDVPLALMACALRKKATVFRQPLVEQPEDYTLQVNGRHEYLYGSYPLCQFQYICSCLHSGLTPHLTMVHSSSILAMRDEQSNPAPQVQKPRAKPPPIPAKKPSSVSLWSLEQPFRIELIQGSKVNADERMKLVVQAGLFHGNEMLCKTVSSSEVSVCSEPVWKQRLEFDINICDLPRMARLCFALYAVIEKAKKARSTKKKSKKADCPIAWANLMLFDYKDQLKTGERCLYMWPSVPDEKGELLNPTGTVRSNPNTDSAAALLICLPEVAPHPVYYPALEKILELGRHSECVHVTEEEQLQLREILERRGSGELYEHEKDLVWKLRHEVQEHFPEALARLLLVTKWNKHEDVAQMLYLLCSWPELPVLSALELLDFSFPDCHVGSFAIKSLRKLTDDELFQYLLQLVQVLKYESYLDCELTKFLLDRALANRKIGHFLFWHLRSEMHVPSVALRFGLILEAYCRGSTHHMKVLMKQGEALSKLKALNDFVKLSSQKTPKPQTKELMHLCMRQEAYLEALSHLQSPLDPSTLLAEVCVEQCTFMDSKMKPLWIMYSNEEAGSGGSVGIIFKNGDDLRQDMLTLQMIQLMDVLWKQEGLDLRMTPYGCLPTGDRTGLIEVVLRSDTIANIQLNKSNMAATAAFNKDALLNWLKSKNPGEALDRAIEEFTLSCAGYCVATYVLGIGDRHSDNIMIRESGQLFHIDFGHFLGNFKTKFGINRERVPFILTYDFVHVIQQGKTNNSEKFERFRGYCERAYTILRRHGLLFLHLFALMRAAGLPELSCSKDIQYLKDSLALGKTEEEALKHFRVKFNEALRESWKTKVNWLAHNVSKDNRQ
T4 sequence (P27986 whole entry partner): as the sequence (P27986 whole entry partner) above
T2 sequence (Q14680 whole entry): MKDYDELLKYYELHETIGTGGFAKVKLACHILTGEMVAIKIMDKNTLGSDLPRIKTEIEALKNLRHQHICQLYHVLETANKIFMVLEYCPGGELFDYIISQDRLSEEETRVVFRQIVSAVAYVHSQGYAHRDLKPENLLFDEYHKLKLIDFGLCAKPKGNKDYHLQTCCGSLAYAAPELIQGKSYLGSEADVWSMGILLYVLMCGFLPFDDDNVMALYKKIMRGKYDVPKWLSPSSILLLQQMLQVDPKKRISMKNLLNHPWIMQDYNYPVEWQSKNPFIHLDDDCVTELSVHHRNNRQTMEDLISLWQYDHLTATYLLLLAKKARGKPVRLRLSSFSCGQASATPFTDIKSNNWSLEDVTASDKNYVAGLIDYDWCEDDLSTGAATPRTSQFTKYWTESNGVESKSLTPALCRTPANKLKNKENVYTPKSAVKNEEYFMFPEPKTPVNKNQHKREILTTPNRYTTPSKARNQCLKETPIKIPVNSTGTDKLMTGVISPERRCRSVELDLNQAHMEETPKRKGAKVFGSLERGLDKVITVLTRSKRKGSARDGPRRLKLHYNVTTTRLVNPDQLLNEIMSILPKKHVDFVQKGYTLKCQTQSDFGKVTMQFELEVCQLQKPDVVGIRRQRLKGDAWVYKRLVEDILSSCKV

| Compound | IC50 [1] [µM] | IC50 [2] [µM] | IC50 [3] [µM] | IC50 [4] | IC50 [5] [µM] | IC50 [6] [µM] |
| --- | --- | --- | --- | --- | --- | --- |
| CC(C)(C#N)c1ccc(-c2n[nH]c3cnc4ccc(-c5cnc6ccccc6c5)cc4c23)cc1 [Compound 1078, 2-methyl-2-(4-(8-(quinolin-3-yl)-3H-pyrazolo[3,4-c]quinolin-1-yl)phenyl)propanenitrile] | 0.01 to 0.025 | > 0.03 | > 0.025 | < 0.015 µM and 0.01 to 0.035 µM | 0.015 to 0.055 | > 0.02 |
| CC(C)(C#N)c1ccc(-c2n[nH]c3cnc4ccc(-c5cccnc5)cc4c23)cc1 [Compound 1107, 2-methyl-2-(4-(8-(pyridin-3-yl)-3H-pyrazolo[3,4-c]quinolin-1-yl)phenyl)propanenitrile] | 0.01 to 0.025 | < 0.012 | 0.005 to 0.025 | 0.01 to 0.035 µM | < 0.01 | < 0.01 |
| CC(C)(C#N)c1ccc(-c2n[nH]c3cnc4ccc(-c5ccc6ncccc6c5)cc4c23)cc1 [Compound 1110, 2-methyl-2-(4-(8-(quinolin-6-yl)-3H-pyrazolo[3,4-c]quinolin-1-yl)phenyl)propanenitrile] | 0.01 to 0.025 | > 0.03 | > 0.025 | 0.01 to 0.035 µM | 0.015 to 0.055 | < 0.01 |
